Values joined by “and” are separate entries in the source; they are usually repeats but may differ in a detail not shown here. Equal values may be shown once.
Columns and labels:
respiratory functions = test: Effects on respiratory functions after oral administration in male Wistar rats; assay type: in vivo, rat; conditions: for Pupil diameter: rat, in vivo
Procedure: The effects of […] (0.5, 50 and 100 mg/kg) on respiratory functions are analyzed after oral (per os) administration in male Wistar rats (8 rats/dose). […] (100 mg/kg) administered under the same conditions is used as a reference substance. Theophylline (100 mg/kg), administered under the same experimental conditions, is used as a reference substance. Carboxymethyl cellulose (0.5%) in distilled water is used as a control vehicle. At the end of the testing period (i.e., 360 minutes after administration of the dose), the behavior of the animals as well as the diameter of their pupils (miosis/mydriasis) are evaluated. Blood samples are taken from each rat (except those pertaining to the theophylline group) in order to analyze the concentration of the substance in the blood. […]

[1] = test system: bronchoconstriction induced by acetylcholine; test: Inhibition of acetylcholine-induced bronchoconstriction in anaesthetized ventilated guinea pigs; assay type: in vivo, guinea pig
Procedure: Guinea pigs are anaesthetized and artificially ventilated. The air penetrating the lungs is measured by means of a sensor. Each inspiration is thus quantified. Bronchoconstriction is then induced by intravenous injection of acetylcholine. The effect of acetylcholine is a direct and immediate modification of bronchial tonus. The bronchoconstriction effects of acetylcholine are evaluated in mm at the peak of the effects.

H4 receptor = H4 receptor (Homo sapiens, UniProt Q9H3N8); test: G protein activation test ([35S] GTP binding); conditions: for Effect on G protein activation induced by histamine: 0.1 μM histamine, FIG. 1a; for Functional character at H4 receptor (basal activity in the absence of agonist): FIG. 1b
histamine H4 receptor [2] = target: T1, histamine H4 receptor (Homo sapiens, UniProt Q9H3N8); test: Affinity constants by competition with tritiated histamine on membrane preparations from CHO cells expressing H4 receptor; assay type: binding; design: expressed in transfected cells; host or cells: CHO; conditions: CHO cell membranes
Text: In a second series of experiments, the affinity constants of these three compounds are precisely determined by competition with the tritiated histamine radioligand on membrane preparations from CHO cells expressing in a stable manner histamine H4 receptor.

histamine H4 receptor [3] = target: T1, histamine H4 receptor; test: Receptor binding in vitro, HEK-293 cells stably transfected with human H4 receptor, 10 nM tritiated histamine; design: expressed in transfected cells; host or cells: HEK-293; conditions: for inhibition at 10 µM: compounds tested at 10 μM, 10 nM tritiated histamine, HEK-293 cells
Procedure: The goal of this study is to determine an affinity constant of the compound with respect to human histamine H4 receptor in vitro. The model chosen is HEK-293 cells transfected in a stable fashion by cDNA coding for human H4 receptor (Liu et al., 2001). First is determined the affinity of cells expressing each type of receptor for a ligand for which it was also established that it bound 100% to the receptor. The optimal ligand for the recombinant receptor is 10 nM tritiated histamine. Receptor binding is defined as follows: the difference between total binding and the nonspecific binding determined in the presence of excess cold ligand. The results are expressed as a percentage of optimal binding obtained with the ligand model (100%).

[4] = test system: plantar edema induced by histamine; test: Plantar edema induced by histamine in the mouse, oral administration; assay type: in vivo; conditions: for Inhibition of inflammation (%): 3 mg/kg oral; for Anti-inflammatory activity, range over pretreatment times: oral, 120, 90, 60 and 30 minutes beforehand
Procedure: The goal of this experiment was to detect possible anti-inflammatory activity of […], […] and […] with respect to plantar edema induced by histamine in the mouse. The principle of the test is inspired by the publication of Kreutner et al. (2000). All groups were composed of 10 animals. The products were administered by oral route (25 ml/kg) in pretreatment, at various times: 120, 90, 60 and 30 minutes before the inflammation-producing agent. Sixty minutes later, an injection (10 μl) in the paw was given under isoflurane anesthesia. The right paw received 13 μg of histamine dihydrochloride and the left paw physiological saline solution (histamine vehicle). Thirty minutes after the injections, the animals were euthanized by cervical dislocation. The paws were sampled and weighed. The edemas were quantified by the difference between the weights of the paws (weight of right paw-weight of left paw).

[5] = test system: histamine-induced bronchoconstriction; test: Histamine-induced bronchoconstriction, Konzett model, intravenous administration; assay type: in vivo, guinea pig
Procedure: The goal of these experiments is to evaluate the activity of the three compounds […] and […] with respect to histamine-induced bronchoconstriction in the Konzett (1940) guinea pig model. Previously we saw that the three compounds exerted antihistamine activity with respect to H4 receptor in vitro, while on the other hand in vivo only […] and […] appeared anti-inflammatory when the inflammation is generated by histamine. It seems that […] loses its activity when it is administered by oral route. With an aim of analyzing the activity by intravenous route of the three products, the following test was conducted. The animals are ventilated, by means of a constant pressure respiratory pump, by a volume of air in excess. […] The variations observed represent changes in bronchial tonus. Histamine-induced bronchoconstriction causes an increase in the excess volume measured by the sensor. The various compounds are administered by way of the jugular vein, which is catheterized beforehand. Histamine stimulation is then carried out by intravenous route at a dose of 7 μg/kg.

[6] = Transcutaneous passage through human skin explants in dynamic diffusion chamber; assay type: in vitro ADME
Text: The importance of H4 receptor in pruritus was recently established. Thus, an antagonist targeting the histamine H4 receptors involved in dermatological pruritus can constitute a weapon of choice for breaking behaviors related to pruritus and, consequently, for avoiding superinfections generated by the skin lesions caused by pruritus. […] To this end, it is useful to have an H4 antihistamine likely to cross the cutaneous barrier in order to reach its target on subcutaneous mast cells. […] Human skin explants were placed in a dynamic diffusion chamber (diffusion area of 0.636 cm^2), with the dermis in contact with the receptor medium (water; 0.9% NaCl 0.9% NaN3 0.1%/ethanol; 75/25; v/v). The flow rate is 1.5 ml/h. The study is carried out at 32° C. The solution containing the compound (500 μl to 2.5 mg/ml, or 10 μCi per cell) is deposited at T=0. The study of transcutaneous passage is carried out under occlusion. The receiving liquid is sampled at 3, 6, 9, 12, 16, 20 and 24 hours.

T1 sequence (Q9H3N8 whole entry): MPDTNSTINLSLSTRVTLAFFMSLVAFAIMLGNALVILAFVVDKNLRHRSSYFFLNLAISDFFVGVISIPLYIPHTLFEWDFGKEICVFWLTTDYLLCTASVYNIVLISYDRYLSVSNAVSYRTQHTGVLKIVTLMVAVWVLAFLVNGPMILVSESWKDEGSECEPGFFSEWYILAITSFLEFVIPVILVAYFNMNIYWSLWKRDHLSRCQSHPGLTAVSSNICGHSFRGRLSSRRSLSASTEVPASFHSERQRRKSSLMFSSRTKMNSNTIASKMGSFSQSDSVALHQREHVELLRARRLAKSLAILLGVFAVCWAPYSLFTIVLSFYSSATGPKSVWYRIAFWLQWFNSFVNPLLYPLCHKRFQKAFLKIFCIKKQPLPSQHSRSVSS
H4 receptor, sequence (Q9H3N8 whole entry): as above

Row | SMILES | Change in respiratory rate (respiratory functions; 100 mg/kg p.o., at 60 minutes) | Effect on G protein activation induced by histamine (H4 receptor) | Functional character at H4 receptor (basal activity in the absence of agonist) (H4 receptor) | Percentage of inhibition (%) ([1]; dose 25 μg/kg) | Percentage of inhibition (%) ([1]; dose 50 μg/kg) | Percentage of inhibition (%) ([1]; dose 100 μg/kg) | Ki (histamine H4 receptor [2]) | Binding to human histamine H4 receptors (in words) (histamine H4 receptor [3]) | inhibition at 10 µM (histamine H4 receptor [3]) | Inhibition of inflammation (%) ([4]; pretreatment −30 min) | Inhibition of inflammation (%) ([4]; pretreatment −60 min) | Inhibition of inflammation (%) ([4]; pretreatment −90 min) | Inhibition of inflammation (%) ([4]; pretreatment −120 min) | Inhibition at 5 min (%) ([5]; 25 mg/kg i.v.) | Inhibition at 30 min (%) ([5]; 25 mg/kg i.v.) | Inhibition at 5 min (%) ([5]; 37.5 mg/kg i.v.) | Inhibition at 30 min (%) ([5]; 37.5 mg/kg i.v.) | Inhibition at 5 min (%) ([5]; 50 mg/kg i.v.) | Inhibition at 30 min (%) ([5]; 50 mg/kg i.v.) | Anti-inflammatory activity, range over pretreatment times [4] | other results
1 | Cn1c(=O)c2[nH]cnc2n(C)c1=O [Theophylline, reference compound] | +223% | – | – | – | – | – | – | – | – | – | – | – | – | – | – | – | – | – | – | – | Change in peak flow of expiration (respiratory functions; 100 mg/kg p.o., at 60 minutes): +121%; Change in peak flow of inspiration (respiratory functions; 100 mg/kg p.o., at 60 minutes): +116%; Change in relaxation time (respiratory functions; 100 mg/kg p.o., at 60 minutes): −61%; Change in time of expiration (respiratory functions; 100 mg/kg p.o., at 60 minutes): −63%; Change in time of inspiration (respiratory functions; 100 mg/kg p.o., at 60 minutes): −60%; Change in respiratory volume (respiratory functions; 100 mg/kg p.o., at 120 minutes): −17%; Change in 'improves respiratory pause' parameter (respiratory functions; 100 mg/kg p.o., at 300 minutes): −37%; Change in respiratory pause (respiratory functions; 100 mg/kg p.o., at 300 minutes): −20%; Behavior and signs of morbid state (respiratory functions; 360 minutes post-administration, V0114 0.5, 50 and 100 mg/kg, L0013 and theophylline 100 mg/kg): no change of behavior or signs of morbid state
2 | CN1[C@@H]2CC[C@H]1C[C@@H](OC(=O)C(CO)c1ccccc1)C2 (some centres unmarked) [Atropine, reference compound] | – | – | – | – | – | – | – | – | – | – | – | – | – | – | – | – | – | – | – | – | Percentage of inhibition (%) ([1]; dose 5 μg/kg): −76 ± 8%
3 | S=C(NC1CCCCC1)N1CCC(c2cnc[nH]2)CC1 [thioperamide, reference compound] | – | antagonize the activating action | inverse agonists | – | – | – | – | – | – | – | – | – | – | – | – | – | – | – | – | – | –
4 | c1ccc2c(c1)Sc1ccccc1N2C[C@H]1CN2CCC1CC2 [V0162, 10-[(3R)-1-azabicyclo[2.2.2]oct-3-ylmethyl]-10H-phenothiazine] | – | antagonize the activating action | inverse agonists | −9 ± 3% | −29 ± 4% | −37 ± 5% | 1180 ± 160 nM | strongly bind | 52% | +2% | +25% | −5% | +12% | −17 + 3% | −9 ± 8% | −23 + 4% | −9 ± 9% | −31 + 12% | −4 ± 10% | – | Effect on histamine edema (in words) ([4]; oral route): does not reduce this edema
5 | c1ccc2c(c1)Sc1ccccc1N2CC1CN2CCC1CC2 (racemic) [L0013, 10-[(3R,3S)-1-azabicyclo[2.2.2]oct-3-ylmethyl]-10H-phenothiazine] | +80% | antagonize the activating action | inverse agonists | −8 ± 1% | −25 ± 2% | −24 ± 6% | 1630 ± 200 nM | strongly bind | – | −54% | −65% | −82% | −80% | −35 ± 5% | −61 ± 5% | −26 ± 4% | −51 ± 8% | −37 ± 5% | −57 ± 7% | −54% to −82% | Accumulated quantity in receiving liquid (receptor zone) at 24 hours ([6]; 24 hours): 107 μg/cm^2 and 107±28 μg/cm^2; Nearly constant maximum flow ([6]; human, 2.5 mg/ml): 5.4 μg/cm^2/h; Time at which nearly constant maximum flow is reached ([6]; human, 2.5 mg/ml): 16 h; Amount of compound in dermis ([6]; human, 24 h, 2.5 mg/ml): 45±14 μg/cm^2; Amount of compound in epidermis ([6]; human, 24 h, 2.5 mg/ml): 56±17 μg/cm^2; Total amount of compound in skin (epidermis and dermis) ([6]; human, 24 h, 2.5 mg/ml): 101 μg/cm^2; Transcutaneous passage ([6]; human, 24 h, 2.5 mg/ml): approx. 100 μg/cm^2/24 h; Change in respiratory volume (respiratory functions; 100 mg/kg p.o., at 60 minutes): −26%; Change in relaxation time (respiratory functions; 100 mg/kg p.o., at 120 minutes): −30%; Pupil diameter (respiratory functions): appreciable increase; Inhibition at 5 min (%) ([5]; 12.5 mg/kg i.v.): −35 ± 6%; Inhibition at 30 min (%) ([5]; 12.5 mg/kg i.v.): −39 ± 7%
6 | c1ccc2c(c1)Sc1ccccc1N2C[C@@H]1CN2CCC1CC2 [V0114, 10-[(3S)-1-azabicyclo[2.2.2]oct-3-ylmethyl]-10H-phenothiazine] | – | antagonize the activating action | inverse agonists | −7 ± 3% | −6 ± 1% | −14 ± 4% | 2490 ± 370 nM | strongly bind | 33% | −63% | −58% | −72% | −71% | −29 ± 3% | −71 + 5% | −51 ± 8% | −91 + 2% | −48 ± 6% | −97 + 2% | −58% to −72% | Effect on the nine respiratory parameters evaluated (respiratory functions; 0.5, 50 and 100 mg/kg p.o., 360 minute test period): does not have a significant effect; Pupil diameter (respiratory functions; male, Wistar, 360 min): an increase of 50 mg/kg related to the administration was noted; Inhibition at 5 min (%) ([5]; 12.5 mg/kg i.v.): −15 ± 3%; Inhibition at 30 min (%) ([5]; 12.5 mg/kg i.v.): −35 + 6%
